Like-named read-outs stand apart in the source and are kept apart here.
How the values were obtained:
Assay type in all cases: in vivo
Phakopsora pachyrhizi = assay: Phakopsora test (soybeans)/preventive; conditions: 7 days after inoculation
Leptosphaeria nodorum = Leptosphaeria nodorum test (wheat)/preventive; conditions: Table C1, 8 days after inoculation
Protocol: Solvent: 49 parts by weight of N,N-dimethylacetamide Emulsifier: 1 part by weight of alkylaryl polyglycol ether To produce a suitable preparation of active compound, 1 part by weight of active compound or active compound combination is mixed with the stated amounts of solvent and emulsifier, and the concentrate is diluted with water to the desired concentration. To test for preventive activity, young plants are sprayed with the preparation of active compound or active compound combination at the stated rate of application. After the spray coating has been dried, the plants are sprayed with a spore suspension of Leptosphaeria nodorum.

Alternaria solani = assay: Alternaria test (tomatoes)/preventive; conditions: 3 days after inoculation
Protocol: (§1) Solvent: 24.5 parts by weight of acetone • 24.5 parts by weight of dimethylacetamide
(§2) Emulsifier: 1 part by weight of alkylaryl polyglycol ether
(§3) To produce a suitable preparation of active compound, 1 part by weight of active compound is mixed with the stated amounts of solvent and emulsifier, and the concentrate is diluted with water to the desired concentration.
To test for preventive activity, young plants are sprayed with the preparation of active compound at the stated rate of application. After the spray coating has dried on, the plants are inoculated with an aqueous spore suspension of Alternaria solani. The plants are then placed in an incubation cabinet at approximately 20° C. and a relative atmospheric humidity of 100%.
The test is evaluated 3 days after the inoculation. 0% means an efficacy which corresponds to that of the untreated control while an efficacy of 100% means that no disease is observed.

[1] = test system: Blumeria graminis f.sp. hordei; assay: Blumeria test (barley)/preventive; conditions: Table B1, 7 days after inoculation
Protocol: Solvent: 49 parts by weight of N,N-dimethylacetamide Emulsifier: 1 part by weight of alkylaryl polyglycol ether To produce a suitable preparation of active compound, 1 part by weight of active compound or active compound combination is mixed with the stated amounts of solvent and emulsifier, and the concentrate is diluted with water to the desired concentration. To test for preventive activity, young plants are sprayed with the preparation of active compound or active compound combination at the stated rate of application. After the spray coating has been dried, the plants are dusted with spores of Blumeria graminis f.sp. hordei.

Pyrenophora teres = assay: Pyrenophora teres-test (barley)/preventive; conditions: Table F1, 8 days after inoculation
Protocol: (§4) Solvent: 49 parts by weight of N,N-dimethylacetamide
as §2
(§5) To produce a suitable preparation of active compound, 1 part by weight of active compound or active compound combination is mixed with the stated amounts of solvent and emulsifier, and the concentrate is diluted with water to the desired concentration.
(§6) To test for preventive activity, young plants are sprayed with the preparation of active compound or active compound combination at the stated rate of application.
After the spray coating has been dried, the plants are sprayed with a spore suspension of Pyrenophora teres. The plants remain for 48 hours in an incubation cabinet at approximately 20° C. and a relative atmospheric humidity of approximately 100%.
(§7) The plants are placed in the greenhouse at a temperature of approximately 20° C. and a relative atmospheric humidity of approximately 80%.
(§8) The test is evaluated 8 days after the inoculation. 0% means an efficacy which corresponds to that of the untreated control, while an efficacy of 100% means that no disease is observed.

Puccinia triticina = assay: Puccinia triticina-test (wheat)/preventive; conditions: Table E1, 8 days after inoculation
Protocol: as §4, §2, §5, §6
After the spray coating has been dried, the plants are sprayed with a spore suspension of Puccinia triticina. The plants remain for 48 hours in an incubation cabinet at approximately 20° C. and a relative atmospheric humidity of approximately 100%.
as §7, §8

Sphaerotheca fuliginea = assay: Sphaerotheca test (cucumbers)/preventive; conditions: Table G1, 7 days after inoculation
Protocol: Solvent: 24.5 parts by weight of acetone • 24.5 parts by weight of dimethylacetamide Emulsifier: 1 part by weight of alkylaryl polyglycol ether To produce a suitable preparation of active compound, 1 part by weight of active compound is mixed with the stated amounts of solvent and emulsifier, and the concentrate is diluted with water to the desired concentration. To test for preventive activity, young plants are sprayed with the preparation of active compound at the stated rate of application. After the spray coating has dried on, the plants are inoculated with an aqueous spore suspension of Sphaerotheca fuliginea.

Venturia inaequalis = assay: Venturia test (apples)/preventive; conditions: Table I1, 10 days after inoculation
Protocol: Solvent: 24.5 parts by weight of acetone • 24.5 parts by weight of dimethylacetamide Emulsifier: 1 part by weight of alkylaryl polyglycol ether To produce a suitable preparation of active compound, 1 part by weight of active compound is mixed with the stated amounts of solvent and emulsifier, and the concentrate is diluted with water to the desired concentration. To test for preventive activity, young plants are sprayed with the preparation of active compound at the stated rate of application.

Uromyces appendiculatus = assay: Uromyces test (beans)/preventive; conditions: 10 days after inoculation
Protocol: as §1, §2, §3
To test for preventive activity, young plants are sprayed with the preparation of active compound at the stated rate of application. After the spray coating has dried on, the plants are inoculated with an aqueous spore suspension of the causal agent of bean rust (Uromyces appendiculatus) and then remain for 1 day in an incubation cabinet at approximately 20° C. and a relative atmospheric humidity of 100%.
The plants are then placed in a greenhouse at approximately 21° C. and a relative atmospheric humidity of approximately 90%.
The test is evaluated 10 days after the inoculation. 0% means an efficacy which corresponds to that of the untreated control, while an efficacy of 100% means that no disease is observed.

With `Fc1ccc([C@]2(Cn3cncn3)O[C@H]2c2ccccc2Cl)cc1` (racemic) [1.12, epoxiconazole] the “Efficacy in % found” value (Phakopsora pachyrhizi; Table D2, 0.5 ppm a.i.) was 23% and the “Efficacy in % found” value (Leptosphaeria nodorum; 40 ppm a.i.) was 33%.
For `CCN(C)/C=N/c1cc(C)c(Oc2ccccc2)cc1C` [(Id)], the “Efficacy in % found” value (Alternaria solani; Table A1, 0.25 ppm a.i.) was 0%, the “Efficacy in % found” value (Alternaria solani; Table A1, 0.5 ppm a.i.) was 24% and the “Efficacy in % found” value (Alternaria solani; Table A1, 1 ppm a.i.) was 18%. For the same compound, the “Efficacy in % found” value (Alternaria solani; Table A2, 0.5 ppm a.i.) was 0%, the “Efficacy in % found” value (Alternaria solani; Table A2, 1 ppm a.i.) was 11% and the “Efficacy in % found” value ([1]; 160 ppm a.i.) was 60%. For the same compound, the “Efficacy in % found” value (Pyrenophora teres; 160 ppm a.i.) was 13%, the “Efficacy in % found” value (Puccinia triticina; 80 ppm a.i.) was 70% and the “Efficacy in % found” value (Puccinia triticina; 160 ppm a.i.) was 80%. For the same compound, the “Efficacy in % found” value (Sphaerotheca fuliginea; 0.25 ppm a.i.) was 0%, the “Efficacy in % found” value (Sphaerotheca fuliginea; 0.5 ppm a.i.) was 0% and the “Efficacy in % found” value (Sphaerotheca fuliginea; 1.25 ppm a.i.) was 10%. It also gave a pest or weed control at 0.25 ppm (Phakopsora pachyrhizi; Phakopsora pachyrhizi, 168 h, Table D1, 0.25 ppm a.i., read-out: Efficacy in % found) of 28%, a pest or weed control at 0.5 ppm (Phakopsora pachyrhizi; Phakopsora pachyrhizi, 168 h, Table D1, 0.5 ppm a.i., read-out: Efficacy in % found) of 40% and a pest or weed control at 1 ppm (Phakopsora pachyrhizi; Phakopsora pachyrhizi, 168 h, Table D1, 1 ppm a.i., read-out: Efficacy in % found) of 70%. For the same compound, the pest or weed control at 0.25 ppm (Phakopsora pachyrhizi; Phakopsora pachyrhizi, 168 h, Table D2, 0.25 ppm a.i., read-out: Efficacy in % found) was 45%, the “Efficacy in % found” value (Venturia inaequalis; 0.25 ppm a.i.) was 0% and the “Efficacy in % found” value (Venturia inaequalis; 0.5 ppm a.i.) was 0%. The “Efficacy in % found” value (Venturia inaequalis; 1 ppm a.i.) was 0%, the “Efficacy in % found” value (Leptosphaeria nodorum; 160 ppm a.i.) was 50% and the “Efficacy in % found” value (Uromyces appendiculatus; Table H1, 0.1 ppm a.i.) was 25%. The “Efficacy in % found” value (Uromyces appendiculatus; Table H1, 0.25 ppm a.i.) was 60%, the “Efficacy in % found” value (Uromyces appendiculatus; Table H2, 0.2 ppm a.i.) was 0% and the “Efficacy in % found” value (Uromyces appendiculatus; Table H3, 0.125 ppm a.i.) was 0%. For the same compound, the “Efficacy in % found” value (Uromyces appendiculatus; Table H3, 0.25 ppm a.i.) was 0%.
With propineb [5.29] the “Efficacy in % found” value (Alternaria solani; Table A2, 20 ppm a.i.) was 12%, the “Efficacy in % found” value (Puccinia triticina; 400 ppm a.i.) was 30% and the “Efficacy in % found” value (Sphaerotheca fuliginea; 10 ppm a.i.) was 29%. The “Efficacy in % found” value (Venturia inaequalis; 5 ppm a.i.) was 14%, the “Efficacy in % found” value (Leptosphaeria nodorum; 400 ppm a.i.) was 33% and the “Efficacy in % found” value (Uromyces appendiculatus; Table H2, 20 ppm a.i.) was 56%.
With `CO/C=C(/C(=O)OC)c1ccccc1Oc1cc(Oc2ccccc2C#N)ncn1` [3.3, azoxystrobin] the “Efficacy in % found” value ([1]; 20 ppm a.i.) was 10%, the “Efficacy in % found” value (Pyrenophora teres; 20 ppm a.i.) was 75% and the “Efficacy in % found” value (Phakopsora pachyrhizi; Table D1, 0.25 ppm a.i.) was 15%. For the same compound, the “Efficacy in % found” value (Venturia inaequalis; 0.5 ppm a.i.) was 88% and the “Efficacy in % found” value (Uromyces appendiculatus; Table H3, 0.125 ppm a.i.) was 0%.

— patent publication US9668477B2, “Active compound combinations” (BAYER CROPSCIENCE AG, priority 2012, dated 2017)
